In patent US20230416228A1 (Forkhead Biotherapeutics, Inc., priority 2020, published 2023):

biological target: T1, human FOXO1 (constitutively active form Thr24Ala, Ser256Ala, Ser319Ala) (Homo sapiens, UniProt Q12778, S256A/S319A/T24A); assay: FOXO1 inhibitor activity assay: cell-based transcriptional (luciferase) reporter assay in HEK293 cells; conditions: HEK293 cells transfected with insulin response element firefly luciferase reporter, FOXO1 and Renilla luciferase; 10-point dose response 50 μM to 2.5 nM; 24 hours
T1 construct: expressed in transfected cells; host or cells: HEK293 cells transfected with pcDNA3.1 plasmid
T1 sequence (Q12778 whole entry T24A/S256A/S319A): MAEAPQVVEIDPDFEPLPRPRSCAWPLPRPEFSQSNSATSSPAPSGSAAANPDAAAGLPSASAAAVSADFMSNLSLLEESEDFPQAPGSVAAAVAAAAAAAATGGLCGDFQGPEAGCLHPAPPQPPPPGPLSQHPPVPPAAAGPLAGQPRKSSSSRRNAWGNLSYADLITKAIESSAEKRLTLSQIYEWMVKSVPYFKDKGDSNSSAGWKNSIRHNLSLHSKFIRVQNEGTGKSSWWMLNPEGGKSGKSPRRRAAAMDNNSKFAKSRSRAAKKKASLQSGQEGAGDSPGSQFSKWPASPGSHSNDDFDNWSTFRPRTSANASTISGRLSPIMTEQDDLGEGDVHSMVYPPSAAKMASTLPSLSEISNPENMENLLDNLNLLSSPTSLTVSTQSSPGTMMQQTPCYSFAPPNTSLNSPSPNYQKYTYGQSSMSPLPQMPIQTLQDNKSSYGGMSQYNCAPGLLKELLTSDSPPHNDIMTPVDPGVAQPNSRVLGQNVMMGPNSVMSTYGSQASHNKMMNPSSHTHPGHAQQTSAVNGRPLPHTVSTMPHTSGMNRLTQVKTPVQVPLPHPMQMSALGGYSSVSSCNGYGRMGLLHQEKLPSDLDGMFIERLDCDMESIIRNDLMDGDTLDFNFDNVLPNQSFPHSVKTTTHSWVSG
In short: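 IC50 and maximal inhibition were fitted by 4-parameter logistic regression on normalized firefly/Renilla luciferase ratios. The 0% reference used RFP in place of FOXO1, and the 100% reference was DMSO-only with all plasmids.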

| Structure (SMILES) | IC50 |
| --- | --- |
| O=C(Nc1cc(-c2nc3ccccc3[nH]2)[nH]n1)c1ccc(OCCO)c(C(F)(F)F)c1 [Compound A-152, N-[5-(1H-benzimidazol-2-yl)-1H-pyrazol-3-yl]-4-(2-hydroxyethoxy)-3-(trifluoromethyl)benzamide] | < 100 nM |
| Cn1nc(NC(=O)c2ccc(N3CCO[C@@H](CO)C3)nc2)cc1-c1nc2ccccc2[nH]1 [Compound A-248, N-[5-(1H-benzimidazol-2-yl)-1-methyl-pyrazol-3-yl]-6-[(2R)-2-(hydroxymethyl)morpholin-4-yl]pyridine-3-carboxamide] | < 100 nM |
| O=C(Nc1cc(-c2nc3cc(Br)ccc3[nH]2)[nH]n1)c1ccc(OCCO)c(Cl)c1 [Compound A-118, N-[5-(5-bromo-1H-benzimidazol-2-yl)-1H-pyrazol-3-yl]-3-chloro-4-(2-hydroxyethoxy)benzamide] | 300 to 1000 nM |
| CN1CCN(c2ccc(C(=O)Nc3cc(-c4nc5ccccc5[nH]4)[nH]n3)cn2)CC1 [Compound A-21, N-[5-(1H-benzimidazol-2-yl)-1H-pyrazol-3-yl]-6-(4-methyl-piperazin-1-yl)pyridine-3-carboxamide] | < 100 nM |
| COCCN1CCN(c2ccc(C(=O)Nc3cc(-c4nc5ccccc5[nH]4)[nH]n3)cn2)CC1 [Compound A-142, N-[5-(1H-benzimidazol-2-yl)-1H-pyrazol-3-yl]-6-[4-(2-methoxyethyl)-piperazin-1-yl]pyridine-3-carboxamide] | < 100 nM |
| Cn1nc(NC(=O)c2ccc(N3CCN4C(=O)CCC4C3)nc2)cc1-c1nc2ccccc2[nH]1 (centres unmarked) [Compound A-228, N-[5-(1H-benzimidazol-2-yl)-1-methyl-pyrazol-3-yl]-6-(6-oxo-1,3,4,7,8,8a-hexahydropyrrolo[1,2-a]pyrazin-2-yl)pyridine-3-carboxamide] | 100 to 300 nM |
| Cn1nc(NC(=O)c2ccc(N3CCN4C(=O)OCC4C3)nc2)cc1-c1nc2ccccc2[nH]1 (centres unmarked) [Compound A-276, N-[5-(1H-benzimidazol-2-yl)-1-methyl-pyrazol-3-yl]-6-(3-oxo-5,6,8,8a-tetrahydro-1H-oxazolo[3,4-a]pyrazin-7-yl)pyridine-3-carboxamide] | < 100 nM |
| O=C(O)CN1CCN(c2ccc(C(=O)Nc3cc(-c4nc5ccccc5[nH]4)[nH]n3)cn2)CC1 [Compound A-156, 2-[4-[5-[[5-(1H-benzimidazol-2-yl)-1H-pyrazol-3-yl]carbamoyl]-2-pyridyl]piperazin-1-yl]acetic acid] | > 1000 nM |
| Cn1nc(NC(=O)c2ccc(N3C[C@H]4COC[C@H]4C3)nc2)cc1-c1nc2ccccc2[nH]1 [Compound A-267, 6-[(3aR,6aS)-1,3,3a,4,6,6a-hexahydrofuro[3,4-c]pyrrol-5-yl]-N-[5-(1H-benzimidazol-2-yl)-1-methyl-pyrazol-3-yl]pyridine-3-carboxamide] | < 100 nM |
| CC1CN(c2ccc(C(=O)Nc3cc(-c4nc5ccccc5[nH]4)n(C)n3)cn2)CC(CO)O1 (single isomer, unassigned) [Compound A-294, N-[5-(1H-benzimidazol-2-yl)-1-methyl-pyrazol-3-yl]-6-[2-(hydroxymethyl)-6-methyl-morpholin-4-yl]pyridine-3-carboxamide] | < 100 nM |
| CN1CCN(c2ccc(C(=O)Nc3cc(-c4nc5ccccc5[nH]4)n(C)n3)cn2)CC1=O [Compound A-246, N-[5-(1H-benzimidazol-2-yl)-1-methyl-pyrazol-3-yl]-6-(4-methyl-3-oxo-piperazin-1-yl)pyridine-3-carboxamide] | 100 to 300 nM |
| Cn1nc(NC(=O)c2ccc(N3CCOC(CO)C3)nc2)cc1-c1nc2ccccc2[nH]1 (centres unmarked) [Compound A-224, N-[5-(1H-benzimidazol-2-yl)-1-methyl-pyrazol-3-yl]-6-[2-(hydroxy-methyl)morpholin-4-yl]pyridine-3-carboxamide] | 100 to 300 nM |
| Cn1nc(NC(=O)c2ccc(N3CC[C@@H](O)C3)nc2)cc1-c1nc2ccccc2[nH]1 [Compound A-225, N-[5-(1H-benzimidazol-2-yl)-1-methyl-pyrazol-3-yl]-6-[(3R)-3-hydroxy-pyrrolidin-1-yl]pyridine-3-carboxamide] | 300 to 1000 nM |
| CN(C)C1CCN(c2ccc(C(=O)Nc3cc(-c4nc5cc(F)ccc5[nH]4)n(C)n3)cn2)CC1 [Compound A-133, 6-[4-(dimethylamino)-1-piperidyl]-N-[5-(5-fluoro-1H-benzimidazol-2-yl)-1-methyl-pyrazol-3-yl]pyridine-3-carboxamide] | 100 to 300 nM |
| CC1CN(c2ccc(C(=O)Nc3cc(-c4nc5ccccc5[nH]4)n(C)n3)cn2)CC(CO)O1 (single isomer, unassigned) [Compound A-295, N-[5-(1H-benzimidazol-2-yl)-1-methyl-pyrazol-3-yl]-6-[2-(hydroxymethyl)-6-methyl-morpholin-4-yl]pyridine-3-carboxamide] | < 100 nM |
| O=C(Nc1cc(-c2nc3ccccc3[nH]2)[nH]n1)c1ccc(N2CC[C@@H](O)C2)nc1 [Compound A-55, N-[5-(1H-benzimidazol-2-yl)-1H-pyrazol-3-yl]-6-[(3R)-3-hydroxypyrrolidin-1-yl]pyridine-3-carboxamide] | 300 to 1000 nM |

| Structure (SMILES) | IC50 |
| --- | --- |
| CN1CCN(c2ccc(C(=O)Nc3cc(-c4nc5ccccc5[nH]4)n(C)n3)cc2)CC1=O [Compound A-235, N-[5-(1H-benzimidazol-2-yl)-1-methyl-pyrazol-3-yl]-4-(4-methyl-3-oxo-piperazin-1-yl)benzamide] | 100 to 300 nM |
| O=C(Nc1cc(-c2nc3cc(OC(F)(F)F)ccc3[nH]2)[nH]n1)c1ccc(N2CCC(O)CC2)nc1 [Compound A-108, 6-(4-hydroxy-1-piperidyl)-N-[5-[5-(trifluoromethoxy)-1H-benzimidazol-2-yl]-1H-pyrazol-3-yl]pyridine-3-carboxamide] | > 1000 nM |
| O=C(Nc1cc(-c2nc3cc(OC(F)(F)F)ccc3[nH]2)[nH]n1)c1ccc(N2CCC(CO)CC2)nc1 [Compound A-114, 6-[4-(hydroxymethyl)-1-piperidyl]-N-[5-[5-(trifluoromethoxy)-1H-benzimidazol-2-yl]-1H-pyrazol-3-yl]pyridine-3-carboxamide] | > 1000 nM |
| Cn1nc(NC(=O)c2ccc(N3CCOCC3)cc2)cc1-c1nc2ccccc2[nH]1 [Compound A-95, N-[5-(1H-benzimidazol-2-yl)-1-methyl-pyrazol-3-yl]-4-morpholino-benzamide] | 100 to 300 nM |
| Cn1nc(NC(=O)c2ccc(N3CC4(CC(O)C4)C3)nc2)cc1-c1nc2ccccc2[nH]1 [Compound A-274, N-[5-(1H-benzimidazol-2-yl)-1-methyl-pyrazol-3-yl]-6-(6-hydroxy-2-azaspiro[3.3]heptan-2-yl)pyridine-3-carboxamide] | 100 to 300 nM |
| O=C(Nc1cc(-c2nc3cc(Br)ccc3[nH]2)[nH]n1)c1ccc(N2CCC(O)CC2)nc1 [Compound A-90, N-[5-(5-bromo-1H-benzimidazol-2-yl)-1H-pyrazol-3-yl]-6-(4-hydroxy-1-piperidyl)pyridine-3-carboxamide] | > 1000 nM |
| Cn1nc(NC(=O)c2ccc(N3CCNC4(CC4)C3)nc2)cc1-c1nc2ccccc2[nH]1 [Compound A-281, N-[5-(1H-benzimidazol-2-yl)-1-methyl-pyrazol-3-yl]-6-(4,7-diazaspiro[2.5]octan-7-yl)pyridine-3-carboxamide] | < 100 nM |
| COc1cc(C(=O)Nc2cc(-c3nc4ccccc4[nH]3)[nH]n2)ccc1OCCO [Compound A-120, N-[5-(1H-benzimidazol-2-yl)-1H-pyrazol-3-yl]-4-(2-hydroxyethoxy)-3-methoxy-benzamide] | 300 to 1000 nM |
| O=C(O)COc1ccc(C(=O)Nc2cc(-c3nc4ccccc4[nH]3)[nH]n2)cn1 [Compound A-62, 2-[[5-[[5-(1H-benzimidazol-2-yl)-1H-pyrazol-3-yl]carbamoyl]-2-pyridyl]-oxy]acetic acid] | > 1000 nM |
| O=C(Nc1cc(-c2nc3ccccc3[nH]2)[nH]n1)c1ccc(N2CCN(CCO)CC2)nc1 [Compound A-143, N-[5-(1H-benzimidazol-2-yl)-1H-pyrazol-3-yl]-6-[4-(2-hydroxyethyl)-piperazin-1-yl]pyridine-3-carboxamide] | 100 to 300 nM |
| CN1CCN(c2ccc(C(=O)Nc3cc(-c4nc5ccccc5[nH]4)n(CCO)n3)cn2)CC1 [Compound A-200, N-[5-(1H-benzimidazol-2-yl)-1-(2-hydroxyethyl)pyrazol-3-yl]-6-(4-methyl-piperazin-1-yl)pyridine-3-carboxamide] | 300 to 1000 nM |
| CC1CN(c2ccc(C(=O)Nc3cc(-c4nc5ccccc5[nH]4)n(C)n3)cn2)CC(CO)O1 (single isomer, unassigned) [Compound A-292, N-[5-(1H-benzimidazol-2-yl)-1-methyl-pyrazol-3-yl]-6-[2-(hydroxymethyl)-6-methyl-morpholin-4-yl]pyridine-3-carboxamide] | < 100 nM |
| COc1ccc(C(=O)Nc2n[nH]c(-c3nc4ccccc4[nH]3)c2Br)cc1Cl [Compound A-71, N-[5-(1H-benzimidazol-2-yl)-4-bromo-1H-pyrazol-3-yl]-3-chloro-4-methoxy-benzamide] | 300 to 1000 nM |
| Cn1nc(NC(=O)c2ccc(N3CCC(N4CCOCC4)CC3)nn2)cc1-c1nc2ccccc2[nH]1 [Compound A-207, N-[5-(1H-benzimidazol-2-yl)-1-methyl-pyrazol-3-yl]-6-(4-morpholino-1-piperidyl)pyridazine-3-carboxamide] | 300 to 1000 nM |
| COc1ccc2[nH]c(-c3cc(NC(=O)c4ccc(N5CCOCC5)nc4)n[nH]3)nc2c1 [Compound A-111, N-[5-(5-methoxy-1H-benzimidazol-2-yl)-1H-pyrazol-3-yl]-6-morpholino-pyridine-3-carboxamide] | > 1000 nM |
| Cn1nc(NC(=O)c2ccc(N3CCC(O)(CCO)CC3)nc2)cc1-c1nc2ccccc2[nH]1 [Compound A-283, N-[5-(1H-benzimidazol-2-yl)-1-methyl-pyrazol-3-yl]-6-[4-hydroxy-4-(2-hydroxyethyl)-1-piperidyl]pyridine-3-carboxamide] | < 100 nM |
